One series deals with residente Hautflora. Kind of series: Surgical hand disinfection test, DGHM guidelines (01.01.1981, Versuch II-2). It is filed as in vivo. The note with it: 5 gew.-%ige solution in demineralised water, hands kept moist 3 Minuten; standard n-Propanol 60 Vol.-% 5 Minuten. An excerpt: (§1) Mit dieser Lösung wurde der Test zur chirurgischen Händedesinfektion entsprechend den Richtlinien der DGHM (Stand: 01.01.1981, Versuch II-2) durchgeführt. Bei diesem Versuch werden die Hände durch Einreiben 3 Minuten feucht gehalten und gegen ein Standardalkohol (n-Propanol 60 Vol.-%) nach 5 Minuten getestet. Der Test gilt als bestanden, wenn die residente Hautflora durch das Testpräparat gleich oder stärker reduziert wird als durch den Standard.

In series [1] the test system is transiente Flora (E. coli). Kind of series: Hygienic hand disinfection test, DGHM guidelines (01.01.1981, Versuch II-1). It is filed as in vivo. The following applies: 1 bis 10 gewichts-%-ige purely aqueous solutions, 30 bis 60 Sekunden; compared with requirements for 60 Volumen-% Ethanol or Isopropanol. The procedure:
Mit der Zubereitung aus Beispiel 2 wurde der Test zur hygienischen Händedesinfektion gemäß den Richtlinien der DGHM (Stand: 01.01.1981, Versuch II-1) durchgeführt. Bei diesem Versuch muß die transiente Flora (E. coli) in 30 Sekunden gleich oder stärker reduziert werden als mit einem Standardalkohol (Isopropanol 60 Vol.-%) in 1 Minute.

The test system of the next series is Bakterien. Kind of series: Comparative trials on germ reduction by aqueous MMPP solutions. The note with it: 0,1 bis 10 gewichts-%-ige aqueous solutions, about 30 Sekunden Einwirkzeit.
The nature of series [2]: Skin tolerance observed during the hand disinfection and decontamination tests. It is filed as in vivo.
From the text: as §1
Mit einer solchen Lösung, die 4 Gew.-% des Wirkstoffes MMPP enthält, wurde ein Test zur Händedekontamination nach DGHM (Stand: 08.07.1986, Versuch 11) durchgeführt. Bei diesem Verfahren wird die Fähigkeit getestet, die transiente Hautflora zu reduzieren. Der Test gilt als bestanden, wenn das Präparat innerhalb von 30 Sekunden eine E. coli-Kontamination um 3,5 logarithmische Stufen entsprechend 99,9684 % reduziert.
Mit diesen Pasten wurden entsprechend Beispiel 2 die Versuche zur Händedekontamination durchgeführt. Die Hände werden 30 Sekunden mit 1,5 ml der Pasten eingerieben und dann mit Wasser entsprechend der Vorschrift aufgeschäumt.
Mit der Zubereitung aus Beispiel 2 wurde der Test zur hygienischen Händedesinfektion gemäß den Richtlinien der DGHM (Stand: 01.01.1981, Versuch II-1) durchgeführt. […]

From patent EP0998912B1, “Use of peracids for hand's disinfection or decontamination” (Bode Chemie GmbH & Co., priority 1998, dated 2000) come the findings set out here.

A value given as a limit tells only on which side of the number the result lay.

In the case of `O=C(O)c1ccccc1C(=O)OO` [MMPP, Magnesium-Monoperoxidophthalat], the “Reduktion der residenten Hautflora gleich oder stärker als durch den Standard” value with residente Hautflora is “erfüllt diese Anforderungen”. Also, the “Keimreduktion bei der hygienischen Händedesinfektion” value in series [1] is listed as “vergleichbare Keimreduktion”. Besides, the Keimreduktion is listed as more than 4 log-Stufen in the series with Bakterien and > 99,99% in the series on Bakterien (equivalent of the log steps). For the same compound, the Hautverträglichkeit entry in series [2] (0,1 bis 10 gewichts-%-ige aqueous solutions, Vergleichsversuche) is reported as “hervorragend hautverträglich”. Further, in series [2] (Beispiel 1, 5 gew.-%ige MMPP-Lösung, surgical hand disinfection), the Hautunverträglichkeiten result is on record as “keine Hautunverträglichkeiten”.
